Source: ChEMBL document CHEMBL3774345, “Synthesis of new diarylamides with pyrimidinyl pyridine scaffold and evaluation of their anti-proliferative effect on cancer cell lines” (Bioorg Med Chem Lett, 2016)

Columns and labels:
Format in all cases: functional
A549 = assay: Cytotoxicity against human A549 cells assessed as cell growth at 10 uM after 24 hrs by SRB assay; details: A549, 24 h, read-out: Activity
A498 = assay: Cytotoxicity against human A498 cells assessed as cell growth at 10 uM after 24 hrs by SRB assay; details: A498, 24 h, read-out: Activity
[1] = Cytotoxicity against human UACC62 cells assessed as cell growth at 10 uM after 24 hrs by SRB assay; details: UACC-62, 24 h, read-out: Activity
[2] = Cytotoxicity against human HCT15 cells assessed as cell growth at 10 uM after 24 hrs by SRB assay; details: HCT-15, 24 h, read-out: Activity
SK-MEL-2 = assay: Cytotoxicity against human SK-MEL-2 cells assessed as cell growth at 10 uM after 24 hrs by SRB assay; details: SK-MEL-2, 24 h, read-out: Activity
[3] = Cytotoxicity against human RPMI8226 cells assessed as cell growth at 10 uM after 24 hrs by SRB assay; details: RPMI-8226, 24 h, read-out: Activity
[4] = Cytotoxicity against human OVCAR4 cells assessed as cell growth at 10 uM after 24 hrs by SRB assay; details: OVCAR-4, 24 h, read-out: Activity
[5] = Cytotoxicity against human RXF393 cells assessed as cell growth at 10 uM after 24 hrs by SRB assay; details: RXF 393, 24 h, read-out: Activity
[6] = Cytotoxicity against human SKOV3 cells assessed as cell growth at 10 uM after 24 hrs by SRB assay; details: SK-OV-3, 24 h, read-out: Activity
[7] = Cytotoxicity against human OVCAR5 cells assessed as cell growth at 10 uM after 24 hrs by SRB assay; details: OVCAR-5, 24 h, read-out: Activity
T47D = assay: Cytotoxicity against human T47D cells assessed as cell growth at 10 uM after 24 hrs by SRB assay; details: read-out: Activity
[8] = Cytotoxicity against human SW620 cells assessed as cell growth at 10 uM after 24 hrs by SRB assay; details: SW-620, 24 h, read-out: Activity
MDA-MB-231 = assay: Cytotoxicity against human MDA-MB-231 cells assessed as cell growth at 10 uM after 24 hrs by SRB assay; details: MDA-MB-231, 24 h, read-out: Activity
[9] = Cytotoxicity against human SNB75 cells assessed as cell growth at 10 uM after 24 hrs by SRB assay; details: SNB-75, 24 h, read-out: Activity
EKVX = assay: Cytotoxicity against human EKVX cells assessed as cell growth at 10 uM after 24 hrs by SRB assay; details: read-out: Activity
[10] = Cytotoxicity against human HCT116 cells assessed as cell growth at 10 uM after 24 hrs by SRB assay; details: HCT-116, 24 h, read-out: Activity
[11] = Cytotoxicity against human SNB19 cells assessed as cell growth at 10 uM after 24 hrs by SRB assay; details: SNB-19, 24 h, read-out: Activity
[12] = Cytotoxicity against human OVCAR3 cells assessed as cell growth at 10 uM after 24 hrs by SRB assay; details: OVCAR-3, 24 h, read-out: Activity
[13] = Cytotoxicity against human HOP92 cells assessed as cell growth at 10 uM after 24 hrs by SRB assay; details: HOP-92, 24 h, read-out: Activity
SK-MEL-28 = assay: Cytotoxicity against human SK-MEL-28 cells assessed as cell growth at 10 uM after 24 hrs by SRB assay; details: SK-MEL-28, 24 h, read-out: Activity
[14] = Cytotoxicity against human Caki1 cells assessed as cell growth at 10 uM after 24 hrs by SRB assay; details: CAKI-1, 24 h, read-out: Activity
[15] = Cytotoxicity against human UACC257 cells assessed as cell growth at 10 uM after 24 hrs by SRB assay; details: UACC-257, 24 h, read-out: Activity
K562 = assay: Cytotoxicity against human K562 cells assessed as cell growth at 10 uM after 24 hrs by SRB assay; details: K562, 24 h, read-out: Activity
CCRF-CEM = assay: Cytotoxicity against human CCRF-CEM cells assessed as cell growth at 10 uM after 24 hrs by SRB assay; details: read-out: Activity
NCI-H322M = assay: Cytotoxicity against human NCI-H322M cells assessed as cell growth at 10 uM after 24 hrs by SRB assay; details: read-out: Activity
[16] = Cytotoxicity against human HOP62 cells assessed as cell growth at 10 uM after 24 hrs by SRB assay; details: HOP-62, 24 h, read-out: Activity
[17] = Cytotoxicity against human Hs 578T cells assessed as cell growth at 10 uM after 24 hrs by SRB assay; details: read-out: Activity
MCF7 = assay: Cytotoxicity against human MCF7 cells assessed as cell growth at 10 uM after 24 hrs by SRB assay; details: MCF7, 24 h, read-out: Activity
NCI-H522 = assay: Cytotoxicity against human NCI-H522 cells assessed as cell growth at 10 uM after 24 hrs by SRB assay; details: NCI-H522, 24 h, read-out: Activity
[18] = Cytotoxicity against human COLO205 cells assessed as cell growth at 10 uM after 24 hrs by SRB assay; details: COLO 205, 24 h, read-out: Activity
[19] = Cytotoxicity against human HCC2998 cells assessed as cell growth at 10 uM after 24 hrs by SRB assay; details: HCC 2998, 24 h, read-out: Activity
SK-MEL-5 = assay: Cytotoxicity against human SK-MEL-5 cells assessed as cell growth at 10 uM after 24 hrs by SRB assay; details: SK-MEL-5, 24 h, read-out: Activity
[20] = Cytotoxicity against human LOXIMVI cells assessed as cell growth at 10 uM after 24 hrs by SRB assay; details: LOX IMVI, read-out: Activity
NCI-H226 = assay: Cytotoxicity against human NCI-H226 cells assessed as cell growth at 10 uM after 24 hrs by SRB assay; details: NCI-H226, 24 h, read-out: Activity
[21] = Cytotoxicity against human SF268 cells assessed as cell growth at 10 uM after 24 hrs by SRB assay; details: SF-268, 24 h, read-out: Activity
786-0 = assay: Cytotoxicity against human 786-0 cells assessed as cell growth at 10 uM after 24 hrs by SRB assay; details: 786-0, 24 h, read-out: Activity
NCI-H460 = assay: Cytotoxicity against human NCI-H460 cells assessed as cell growth at 10 uM after 24 hrs by SRB assay; details: NCI-H460, 24 h, read-out: Activity
[22] = Cytotoxicity against human IGROV1 cells assessed as cell growth at 10 uM after 24 hrs by SRB assay; details: IGROV-1, 24 h, read-out: Activity
[23] = Cytotoxicity against human PC3 cells assessed as cell growth at 10 uM after 24 hrs by SRB assay; details: PC-3, 24 h, read-out: Activity

Row | SMILES | growth at 10 µM (A549) [%] | growth at 10 µM (A498) [%] | growth at 10 µM [1] [%] | growth at 10 µM [2] [%] | growth at 10 µM (SK-MEL-2) [%] | growth at 10 µM [3] [%] | growth at 10 µM [4] [%] | growth at 10 µM [5] [%] | growth at 10 µM [6] [%] | growth at 10 µM [7] [%] | growth at 10 µM (T47D) [%] | growth at 10 µM [8] [%] | growth at 10 µM (MDA-MB-231) [%] | growth at 10 µM [9] [%] | growth at 10 µM (EKVX) [%] | growth at 10 µM [10] [%] | growth at 10 µM [11] [%] | growth at 10 µM [12] [%] | growth at 10 µM [13] [%] | growth at 10 µM (SK-MEL-28) [%] | other results
1 | COc1cc(OC)cc(C(=O)Nc2cc(-c3cccnc3)nc(NCCCN3CCOCC3)n2)c1 | 92.6 | 83.3 | 97.6 | 90.6 | 84.1 | 79.1 | 117 | 93.9 | 93.9 | 100 | 72.8 | 99.9 | 79.6 | 109 | 103 | 89.2 | 98.7 | 105 | 67.7 | 101 | growth at 10 µM [14]: 101%; growth at 10 µM [15]: 88.6%; growth at 10 µM (K562): 74.1%; growth at 10 µM (CCRF-CEM): 90.8%; growth at 10 µM (NCI-H322M): 90.9%; growth at 10 µM [16]: 87.8%; growth at 10 µM [17]: 69%; growth at 10 µM (MCF7): 88%; growth at 10 µM (NCI-H522): 92%; growth at 10 µM [18]: 94.3%; growth at 10 µM [19]: 123%; growth at 10 µM (SK-MEL-5): 68.3%; growth at 10 µM [20]: 88.1%; growth at 10 µM (NCI-H226): 85.7%; growth at 10 µM [21]: 94.1%; growth at 10 µM (786-0): 84%; growth at 10 µM (NCI-H460): 95.3%; growth at 10 µM [22]: 97.4%; growth at 10 µM [23]: 85.4%
2 | O=C(Nc1cc(-c2cccnc2)nc(NCCCN2CCOCC2)n1)c1ccc(F)cc1Cl | 102 | 81.2 | 105 | 94.5 | 91.3 | 90 | 115 | 102 | 101 | 100 | 99.5 | 90.3 | 93.2 | 112 | 102 | 106 | 94.2 | 106 | 91.2 | 108 | growth at 10 µM [14]: 90.3%; growth at 10 µM [15]: 95.4%; growth at 10 µM (K562): 83.3%; growth at 10 µM (CCRF-CEM): 88.3%; growth at 10 µM (NCI-H322M): 88.2%; growth at 10 µM [16]: 95.5%; growth at 10 µM [17]: 105%; growth at 10 µM (MCF7): 87.4%; growth at 10 µM (NCI-H522): 87.1%; growth at 10 µM [18]: 99.5%; growth at 10 µM [19]: 98.4%; growth at 10 µM (SK-MEL-5): 88%; growth at 10 µM [20]: 96.5%; growth at 10 µM (NCI-H226): 108%; growth at 10 µM [21]: 94.9%; growth at 10 µM (786-0): 89.2%; growth at 10 µM (NCI-H460): 94.8%; growth at 10 µM [22]: 95.9%; growth at 10 µM [23]: 91.2%
